{"source": "paper PMC5601486", "about": "“Identification of 4-phenylquinolin-2(1H)-one as a specific allosteric inhibitor of Akt” (Scientific Reports, 2017)", "assay_in_all_cases": "KINOMEscan", "conditions_in_all_cases": "50000 nM", "key": {"[1]": {"system": "EGFR(T790M)", "protocol": "KINOMEscan™ selectivity screen\n(§1) The assay was perfor med at DiscoveRx Corporation according the methods published previously5. Briefly, Kinase-tagged T7 phage strains were grown in parallel in an E. coli host derived from the BL21 strain. E. coli were grown to log-phase and infected with T7 phage from a frozen stock and incubated with shaking at 32°C until lysis (90-150 minutes). The kinases were produced in HEK-293 cells and subsequently tagged with DNA for qPCR detection. Streptavidin-coated magnetic beads were treated with biotinylated small molecule ligands to generate affinity resins for kinase\n(§2) inhibitor or DMSO control was performed in polypropylene 384-well plates for 1 hr at room temperature. After wash with PBS buffer containing 0.05% Tween 20, the beads were incubated in elution buffer (PBS containing 0.05 % Tween 20 and 0.5 μM non-biotinylated affinity ligand) for 30 minutes at room temperature. The kinase concentration in the eluates was measured by qPCR."}, "[2]": {"system": "MAP4K2", "protocol": "KINOMEscan™ selectivity screen\nas §1, §2"}, "[3]": {"system": "MAST1", "protocol": "KINOMEscan™ selectivity screen\nas §1, §2"}, "[4]": {"system": "MRCKA", "protocol": "KINOMEscan™ selectivity screen\nas §1, §2"}, "[5]": {"system": "PIK3C2B", "protocol": "KINOMEscan™ selectivity screen\n(§3) Briefly, Kinase-tagged T7 phage strains were grown in parallel in an E. coli host derived from the BL21 strain. E. coli were grown to log-phase and infected with T7 phage from a frozen stock and incubated with shaking at 32°C until lysis (90-150 minutes). The kinases were produced in HEK-293 cells and subsequently tagged with DNA for qPCR detection. Streptavidin-coated magnetic beads were treated with biotinylated small molecule ligands to generate affinity resins for kinase\nas §2"}, "[6]": {"system": "PIK3CA(C420R)", "protocol": "KINOMEscan™ selectivity screen\nas §3, §2"}, "[7]": {"system": "PIK3CA(M1043I)", "protocol": "KINOMEscan™ selectivity screen\nas §1, §2"}, "[8]": {"system": "PIP5K2B", "protocol": "KINOMEscan™ selectivity screen\nas §1, §2"}, "[9]": {"system": "STK33", "protocol": "KINOMEscan™ selectivity screen\nas §1, §2"}, "[10]": {"system": "CDK9", "protocol": "KINOMEscan™ selectivity screen\nas §3, §2"}, "[11]": {"system": "BRK", "protocol": "KINOMEscan™ selectivity screen\nas §1, §2"}, "[12]": {"system": "EPHB3", "protocol": "KINOMEscan™ selectivity screen\n(§4) The assay was perfor med at DiscoveRx Corporation according the methods published previously5. […] The kinases were produced in HEK-293 cells and subsequently tagged with DNA for qPCR detection. Streptavidin-coated magnetic beads were treated with biotinylated small molecule ligands to generate affinity resins for kinase\nas §2"}, "[13]": {"system": "PRKD1", "protocol": "KINOMEscan™ selectivity screen\nas §1, §2"}, "[14]": {"system": "EPHA5", "protocol": "KINOMEscan™ selectivity screen\nas §1, §2"}, "[15]": {"system": "RIOK1", "protocol": "KINOMEscan™ selectivity screen\nas §1, §2"}, "[16]": {"system": "TBK1", "protocol": "KINOMEscan™ selectivity screen\nas §1, §2"}, "[17]": {"system": "TSSK3", "protocol": "KINOMEscan™ selectivity screen\nas §1, §2"}, "[18]": {"system": "YANK3", "protocol": "KINOMEscan™ selectivity screen\nas §1, §2"}, "[19]": {"system": "MYLK", "protocol": "KINOMEscan™ selectivity screen\nas §1, §2"}, "[20]": {"system": "EPHA7", "protocol": "KINOMEscan™ selectivity screen\nas §1, §2"}, "[21]": {"system": "CDK2", "protocol": "KINOMEscan™ selectivity screen\nas §3, §2"}, "[22]": {"system": "ERK4", "protocol": "KINOMEscan™ selectivity screen\nas §1, §2"}, "[23]": {"system": "SNRK", "protocol": "KINOMEscan™ selectivity screen\nas §4, §2"}, "[24]": {"system": "BMPR1B", "protocol": "KINOMEscan™ selectivity screen\nas §1, §2"}, "[25]": {"system": "NDR1", "protocol": "KINOMEscan™ selectivity screen\nas §3, §2"}, "[26]": {"system": "BRSK2", "protocol": "KINOMEscan™ selectivity screen\nas §1, §2"}, "[27]": {"system": "MEK3", "protocol": "KINOMEscan™ selectivity screen\nas §1, §2"}, "[28]": {"system": "PDPK1", "protocol": "KINOMEscan™ selectivity screen\nas §1, §2"}, "[29]": {"system": "ALK(C1156Y)", "protocol": "KINOMEscan™ selectivity screen\nas §1, §2"}, "[30]": {"system": "PLK2", "protocol": "KINOMEscan™ selectivity screen\nas §3, §2"}, "[31]": {"system": "KIT-autoinhibited", "protocol": "KINOMEscan™ selectivity screen\nas §1, §2"}, "[32]": {"system": "NEK2", "protocol": "KINOMEscan™ selectivity screen\nas §1, §2"}, "[33]": {"system": "CSK", "protocol": "KINOMEscan™ selectivity screen\nas §1, §2"}, "[34]": {"system": "DYRK1B", "protocol": "KINOMEscan™ selectivity screen\nas §4, §2"}, "[35]": {"system": "IGF1R", "protocol": "KINOMEscan™ selectivity screen\nas §4, §2"}, "[36]": {"system": "GRK1", "protocol": "KINOMEscan™ selectivity screen\nas §1, §2"}, "[37]": {"system": "JNK1", "protocol": "KINOMEscan™ selectivity screen\nas §1, §2"}, "[38]": {"system": "CSNK1G2", "protocol": "KINOMEscan™ selectivity screen\nThe kinases were produced in HEK-293 cells and subsequently tagged with DNA for qPCR detection. Streptavidin-coated magnetic beads were treated with biotinylated small molecule ligands to generate affinity resins for kinase\nas §2"}, "[39]": {"system": "ABL1-phosphorylated", "protocol": "KINOMEscan™ selectivity screen\nas §1, §2"}, "[40]": {"system": "YSK1", "protocol": "KINOMEscan™ selectivity screen\nas §1, §2"}, "[41]": {"system": "CLK1", "protocol": "KINOMEscan™ selectivity screen\nas §3, §2"}, "[42]": {"system": "MARK2", "protocol": "KINOMEscan™ selectivity screen\nas §3, §2"}, "[43]": {"system": "TLK1", "protocol": "KINOMEscan™ selectivity screen\nas §1, §2"}, "[44]": {"system": "ABL1(E255K)-phosphorylated", "protocol": "KINOMEscan™ selectivity screen\nas §1, §2"}, "[45]": {"system": "LRRK2", "protocol": "KINOMEscan™ selectivity screen\nas §1, §2"}, "[46]": {"system": "FLT3(D835H)", "protocol": "KINOMEscan™ selectivity screen\nas §1, §2"}, "[47]": {"system": "KIT(L576P)", "protocol": "KINOMEscan™ selectivity screen\nas §3, §2"}, "[48]": {"system": "KIT(V559D)", "protocol": "KINOMEscan™ selectivity screen\nas §3, §2"}, "[49]": {"system": "CSF1R-autoinhibited", "protocol": "KINOMEscan™ selectivity screen\nas §1, §2"}}}
{"smiles": "Oc1cc(-c2ccccc2)c2ccccc2n1", "note": "[G7, 4-phenylquinolin-2(1H)-one]", "values": [{"measurement": "Percent Control", "setting": "[1]", "value": 100, "unit": "%"}, {"measurement": "Percent Control", "setting": "[2]", "value": 100, "unit": "%"}, {"measurement": "Percent Control", "setting": "[3]", "value": 100, "unit": "%"}, {"measurement": "Percent Control", "setting": "[4]", "value": 100, "unit": "%"}, {"measurement": "Percent Control", "setting": "[5]", "value": 100, "unit": "%"}, {"measurement": "Percent Control", "setting": "[6]", "value": 100, "unit": "%"}, {"measurement": "Percent Control", "setting": "[7]", "value": 100, "unit": "%"}, {"measurement": "Percent Control", "setting": "[8]", "value": 100, "unit": "%"}, {"measurement": "Percent Control", "setting": "[9]", "value": 100, "unit": "%"}, {"measurement": "Percent Control", "setting": "[10]", "value": 99, "unit": "%"}, {"measurement": "Percent Control", "setting": "[11]", "value": 96, "unit": "%"}, {"measurement": "Percent Control", "setting": "[12]", "value": 96, "unit": "%"}, {"measurement": "Percent Control", "setting": "[13]", "value": 96, "unit": "%"}, {"measurement": "Percent Control", "setting": "[14]", "value": 95, "unit": "%"}, {"measurement": "Percent Control", "setting": "[15]", "value": 95, "unit": "%"}, {"measurement": "Percent Control", "setting": "[16]", "value": 95, "unit": "%"}, {"measurement": "Percent Control", "setting": "[17]", "value": 95, "unit": "%"}, {"measurement": "Percent Control", "setting": "[18]", "value": 93, "unit": "%"}, {"measurement": "Percent Control", "setting": "[19]", "value": 90, "unit": "%"}, {"measurement": "Percent Control", "setting": "[20]", "value": 89, "unit": "%"}, {"measurement": "Percent Control", "setting": "[21]", "value": 88, "unit": "%"}, {"measurement": "Percent Control", "setting": "[22]", "value": 86, "unit": "%"}, {"measurement": "Percent Control", "setting": "[23]", "value": 84, "unit": "%"}, {"measurement": "Percent Control", "setting": "[24]", "value": 83, "unit": "%"}, {"measurement": "Percent Control", "setting": "[25]", "value": 83, "unit": "%"}, {"measurement": "Percent Control", "setting": "[26]", "value": 82, "unit": "%"}, {"measurement": "Percent Control", "setting": "[27]", "value": 81, "unit": "%"}, {"measurement": "Percent Control", "setting": "[28]", "value": 81, "unit": "%"}, {"measurement": "Percent Control", "setting": "[29]", "value": 80, "unit": "%"}, {"measurement": "Percent Control", "setting": "[30]", "value": 78, "unit": "%"}, {"measurement": "Percent Control", "setting": "[31]", "value": 77, "unit": "%"}, {"measurement": "Percent Control", "setting": "[32]", "value": 77, "unit": "%"}, {"measurement": "Percent Control", "setting": "[33]", "value": 76, "unit": "%"}, {"measurement": "Percent Control", "setting": "[34]", "value": 76, "unit": "%"}, {"measurement": "Percent Control", "setting": "[35]", "value": 76, "unit": "%"}, {"measurement": "Percent Control", "setting": "[36]", "value": 75, "unit": "%"}, {"measurement": "Percent Control", "setting": "[37]", "value": 75, "unit": "%"}, {"measurement": "Percent Control", "setting": "[38]", "value": 74, "unit": "%"}, {"measurement": "Percent Control", "setting": "[39]", "value": 73, "unit": "%"}, {"measurement": "Percent Control", "setting": "[40]", "value": 70, "unit": "%"}, {"measurement": "Percent Control", "setting": "[41]", "value": 69, "unit": "%"}, {"measurement": "Percent Control", "setting": "[42]", "value": 65, "unit": "%"}, {"measurement": "Percent Control", "setting": "[43]", "value": 59, "unit": "%"}, {"measurement": "Percent Control", "setting": "[44]", "value": 56, "unit": "%"}, {"measurement": "Percent Control", "setting": "[45]", "value": 55, "unit": "%"}, {"measurement": "Percent Control", "setting": "[46]", "value": 34, "unit": "%"}, {"measurement": "Percent Control", "setting": "[47]", "value": 22, "unit": "%"}, {"measurement": "Percent Control", "setting": "[48]", "value": 20, "unit": "%"}, {"measurement": "Percent Control", "setting": "[49]", "value": 16, "unit": "%"}]}
